# Peptide text beside a SMILES is read from it.
# Biological target: Cytochrome P450 3A4 (Homo sapiens, UniProt P08684)
# Assay: Binding affinity to recombinant CYP3A4 expressed in Escherichia coli assessed as spectral dissociation constant by spectrophotometric equilibrium binding titration method
# Assay type: ADME
# Conditions: read-out: K
# Chain of Cytochrome P450 3A4 (P08684 whole entry): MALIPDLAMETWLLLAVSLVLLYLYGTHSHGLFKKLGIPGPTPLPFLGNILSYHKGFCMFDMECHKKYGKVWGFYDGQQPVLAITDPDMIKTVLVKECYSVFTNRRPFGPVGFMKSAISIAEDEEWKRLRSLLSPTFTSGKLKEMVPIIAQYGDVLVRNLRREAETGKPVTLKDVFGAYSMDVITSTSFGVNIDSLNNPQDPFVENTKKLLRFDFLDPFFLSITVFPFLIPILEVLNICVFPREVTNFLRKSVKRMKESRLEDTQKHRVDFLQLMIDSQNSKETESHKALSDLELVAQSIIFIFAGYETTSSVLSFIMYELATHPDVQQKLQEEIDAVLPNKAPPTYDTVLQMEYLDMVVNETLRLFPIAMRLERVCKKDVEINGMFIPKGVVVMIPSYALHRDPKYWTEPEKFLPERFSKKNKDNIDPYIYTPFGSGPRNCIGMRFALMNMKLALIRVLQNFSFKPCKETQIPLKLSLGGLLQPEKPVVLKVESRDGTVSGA
smiles,measurement,value
NC(=O)[C@@H]1CCCN1C(=O)[C@H](Cc1ccccc1)NC(=O)[C@@H]1CCCN1C(=O)[C@@H](N)Cc1ccc(O)cc1 [MORPHICEPTIN] (H-YPFP-NH2),Kd,7.8 mM

# From ChEMBL document CHEMBL1156433, “Multiple sequential steps involved in the binding of inhibitors to cytochrome P450 3A4” (J Biol Chem, 2007)
